Measured values published in PMC8647500 (Molecular Brain, 2021).
Structures can show the parent of a compound that is named as a salt. Values belong to the molecule of their own block, whether it stands above or below them.

What was measured:
[1] = tested on: GRABNE1m; test: Dual-color time-lapse imaging in HeLa cells co-expressing DA1.2 and NE1m, green channel; assay type: cell-based; conditions: for NE1m fluorescence response to ligand: NE 1 µM then DA 5 µM
Protocol: (§1) Stock solutions for the compounds were dissolved in the appropriate vehicle, and a volume from 0.95 to 1 µl was prepared in each 1.5-ml microcentrifuge tube. Compounds were mixed with 0.5 ml imaging buffer from the well and applied to the same well at each time point during imaging (Additional file 1: Fig. S4b). For temperature equilibration of the imaging buffer, 0.5 ml of the imaging buffer was transferred from the well into an empty 1.5-ml microcentrifuge tube and then applied to the buffer in the same well; this procedure repeated 5 times (Additional file 1: Fig. S4c). The procedure for the compound application in the time-lapse imaging is shown in Additional file 1: Fig. S5. The ‘ligand’ dissolved in the appropriate vehicle was applied at the imaging time point shown by the arrow; the ‘vehicle’ was applied at the same time point.
We used Fiji, a distribution of ImageJ [44], for the preparation of quantification and measurement of all imaging files. Principally, for all images, the background was subtracted, and images were registered by StackReg (http://bigwww.epfl.ch/thevenaz/stackreg/), a Fiji plugin to correct misregistration, if required. Note that the median filter was used for the time-lapse images of the neuron before registration to remove camera noise preventing registration. Then, regions of interests (ROIs) were selected for the first time point in time-lapse imaging or in the images before the compound application, to surround the whole cell body for HeLa cells and a dendrite near the cell body for hippocampal neurons. […] In order to normalize the fluorescence changes with the amount of biosensor expression, ΔF/F0 was calculated using the intensity before the compound application. For the time-lapse experiments, the value used for F0 was the mean intensity before compound application. The image of fluorescence change (ΔF/F0) was represented as the pseudocolor intensity-modulated display mode, where color represents the relative ratio value, whilst the brightness of the color represented the fluorescence intensity of the source images. […]

[2] = molecular target: T1, R-GenGAR-DA1.2 (Homo sapiens, UniProt P21728); test: Dual-color time-lapse imaging in HeLa cells co-expressing DA1.2 and NE1m, red channel; assay type: cell-based
T1 sequence (P21728 with tags, fused parts or gaps): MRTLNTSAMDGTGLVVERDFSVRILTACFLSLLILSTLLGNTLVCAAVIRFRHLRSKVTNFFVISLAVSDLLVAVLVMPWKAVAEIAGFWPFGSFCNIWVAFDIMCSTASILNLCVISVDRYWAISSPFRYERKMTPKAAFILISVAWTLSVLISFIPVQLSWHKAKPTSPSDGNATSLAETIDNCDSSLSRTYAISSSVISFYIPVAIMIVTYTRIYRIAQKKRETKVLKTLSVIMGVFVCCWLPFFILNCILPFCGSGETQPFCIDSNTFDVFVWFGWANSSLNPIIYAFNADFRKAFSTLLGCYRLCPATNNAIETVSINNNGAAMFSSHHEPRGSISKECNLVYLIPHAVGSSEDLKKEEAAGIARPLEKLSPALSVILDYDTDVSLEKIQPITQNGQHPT
T1 sequence (Q9U6Y8 with tags, fused parts or gaps partner): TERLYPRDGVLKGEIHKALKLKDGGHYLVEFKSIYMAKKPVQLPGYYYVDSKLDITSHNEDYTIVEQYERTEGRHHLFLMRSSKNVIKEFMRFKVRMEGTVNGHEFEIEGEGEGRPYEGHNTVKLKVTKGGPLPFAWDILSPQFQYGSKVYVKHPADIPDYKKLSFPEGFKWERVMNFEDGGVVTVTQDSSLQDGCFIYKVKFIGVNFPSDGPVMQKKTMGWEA
Protocol: as §1
(§2) We used Fiji, a distribution of ImageJ [44], for the preparation of quantification and measurement of all imaging files. […] In order to normalize the fluorescence changes with the amount of biosensor expression, ΔF/F0 was calculated using the intensity before the compound application. […] The image of fluorescence change (ΔF/F0) was represented as the pseudocolor intensity-modulated display mode, where color represents the relative ratio value, whilst the brightness of the color represented the fluorescence intensity of the source images. […]

[3] = molecular target: T1, R-GenGAR-DA1.2; test: Dual-color time-lapse imaging in rat primary hippocampal neurons co-expressing DA1.2 and NE1m, red channel; assay type: cell-based
Protocol: (§3) Primary cultures of rat hippocampal neurons were prepared similarly to that described previously. Female pregnant Wistar/ST rats (total 8 rats) arrived from Japan SLC on the day of the experiment. A pregnant rat with embryonic rats (embryonic days 19) was killed by CO2 inhalation and then embryos (10 embryos per pregnant rat) were removed and decapitated. […] To dissociate hippocampal neurons, hippocampi were treated with 10 units/ml papain (LS003126, Worthington Biochemical) for 10 min at 37 °C. […] Half of the medium was removed and replaced with fresh medium every 7 days.
(§4) Stock solutions for the compounds were dissolved in the appropriate vehicle, and a volume from 0.95 to 1 µl was prepared in each 1.5-ml microcentrifuge tube. […]
as §2

[4] = tested on: GRABNE1m; test: Dual-color time-lapse imaging in rat primary hippocampal neurons co-expressing DA1.2 and NE1m, green channel; assay type: cell-based
Protocol: as §3, §4, §2

[5] = molecular target: T1, R-GenGAR-DA1.2; conditions: HeLa cells, all compounds 10 µM
[6] = molecular target: T1, R-GenGAR-DA1.2; conditions: rat primary hippocampal neurons

Structure (SMILES): NCCc1ccc(O)c(O)c1 [DA, Dopamine]
NE1m fluorescence response to ligand [1]: not DA

Structure (SMILES): NC[C@H](O)c1ccc(O)c(O)c1 [NE, L-noradrenaline bitartrate monohydrate]
DA1.2 fluorescence response to ligand ([2]; NE 1 µM then DA 5 µM): not to NE | NE1m fluorescence response to ligand [1]: increase in green fluorescence | DA1.2 fluorescence response to ligand ([3]; NE 1 µM then DA 5 µM): not NE | NE1m fluorescence response to ligand ([4]; NE 1 µM): increase in NE1m green fluorescence

effect of antagonist on DA1.2 response to DA ([2]; SCH 5 µM): blocked | effect of antagonist on DA1.2 response to DA ([3]; SCH 5 µM): restored | effect of antagonist on the response of DA1.2 to DA [5]: blocked | effect of antagonist applied after DA on DA1.2 fluorescence ([6]; SCH 5 µM after DA 5 µM): restored to baseline | effect of antagonist pretreatment on response of DA1.2 to DA ([6]; SCH before DA): completely suppressed
Structure (SMILES): CN1CCc2cc(Cl)c(O)cc2[C@@H](c2ccccc2)C1 [SCH, R( +)-SCH 23390 hydrochloride]

Structure (SMILES): COC(=O)[C@@H]1[C@H]2C[C@H]3c4[nH]c5ccccc5c4CCN3C[C@@H]2CC[C@@H]1O [YO, yohimbine hydrochloride]
effect of antagonist on NE1m fluorescence response ([1]; YO 1 µM): recovered to its basal level | effect of antagonist on NE1m fluorescence response ([4]; YO 1 µM): blocked
